Results: PubChem BioAssay AID2060596 (Global Health Medicines R&D, GSK, 2025)
Calls of active or inactive are those of the source.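 Rule for the calls: active = IC50 at or below about 50119 nM, measured in restricted growth medium; inactive = the rest.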

system: HepG2 viability, ATP luminescence, 48 h; assay: HepG2 cell cytotoxicity, dose response, cytotoxicity control (AID 2060596)

Compound	IC50
Cn1cccc1C1CCCN1CC(=O)Nc1ccc(S(=O)(=O)N2CCOCC2)cc1 (stereo not drawn)	> 100 µM (inactive)
CCN(CC)c1ccc(C(=O)COc2ccc3c(c2)CCNCC3)cc1	31.6 µM
CN(C(=O)C[C@@H]1CCN(C(=O)C2CC2)C1)c1ccc(-c2ccc(C#N)cc2)cc1	> 100 µM (inactive)
NC(=O)CC1CCN(C(=O)c2sc3sccc3c2Cl)CC1	> 100 µM (inactive)
O=C(CCCc1ncc(-c2ccccc2)o1)N1CCOC2CCCC21 (stereo not drawn)	> 100 µM (inactive)
O=C(/C=C/c1n[nH]c2ccccc12)N1CCN(c2cnccn2)CC1	> 100 µM (inactive)
Cc1cccc(-c2nn(Cc3ccc(C(=O)NCCCO)cc3)c(=O)cc2N2CCCC(CO)C2)c1 (stereo not drawn)	> 100 µM (inactive)
O=C(Nc1nnc(-c2ccccc2)s1)N1CCCN(c2ncccn2)CC1	> 100 µM (inactive)
O=C(NCCCN1CCc2ccccc21)c1ccc2c(=O)n(Cc3ccccn3)cnc2c1	> 100 µM (inactive)
COc1ccc(C(=O)N2CCN(c3ccc(-n4cccn4)nn3)CC2)cc1OC	> 100 µM (inactive)
Cc1nn(C2CCS(=O)(=O)C2)c(C)c1CN(C)C(=O)CN1C(=O)NC2(CCCCC2C)C1=O (stereo not drawn)	79.4 µM
CCN(C(=O)C=Cc1ccc(S(=O)(=O)N2CCc3ccccc32)cc1)C1CCS(=O)(=O)C1 (stereo not drawn)	> 100 µM (inactive)
CCCOc1cncc(S(=O)(=O)c2ccc3c(c2)CCN(C2CCC2)CC3)c1	50.1 µM
Cc1cc(Cl)ccc1OCC(=O)N1CCc2c(cnc(C)c2CNC(=O)c2ccc(=O)[nH]n2)C1	> 100 µM (inactive)
COc1ccc2oc(C(=O)NC3CCC(Oc4ncccn4)CC3)cc2c1 (stereo not drawn)	> 100 µM (inactive)
COc1ccc(NC(=O)c2ccc3c(=O)n(Cc4ccccn4)cnc3c2)cc1N1CCN(C)CC1	> 100 µM (inactive)
O=C(CCn1nnc2cc(S(=O)(=O)N3CCCC3)ccc21)N1CCN(c2ccccn2)CC1	> 100 µM (inactive)

Compound	IC50
O=C(CCCc1c[nH]c2ccccc12)N1CCN(c2ccc(N3CCOCC3)nn2)CC1	> 100 µM (inactive)
O=C(CCN=C1NS(=O)(=O)c2ccccc21)Nc1ccc(S(=O)(=O)N2CCCC2)cc1	> 100 µM (inactive)
O=C1CCCN1c1ccc(S(=O)(=O)N2CCN(S(=O)(=O)c3ccccc3)CC2)cc1	> 100 µM (inactive)
N#Cc1cccc(NC(=O)CNc2ccccc2C(=O)NC2CC2)c1	> 100 µM (inactive)
O=C(c1cc2ccccc2[nH]1)N1CCC2(CC(Nc3ccncn3)C2)C1 (stereo not drawn)	63.1 µM
N#Cc1c(N)n[nH]c1CCCNC(=O)c1ccc(Cl)c(S(=O)(=O)N2CCCC2)c1	> 100 µM (inactive)
O=C(COc1ccc(Br)cc1F)N1CCN(c2cnccn2)CC1	> 100 µM (inactive)
O=C(Nc1cccnc1)C1CCN(c2ccc(-c3ccco3)nn2)CC1	> 100 µM (inactive)
Cc1cc(-c2cnc(N3CCn4c(nnc4C4CC4)C3)nc2-c2ccncc2)on1	> 100 µM (inactive)
O=C(Nc1ccc(N2CCCC2)nc1)N1CCN(c2cnccn2)CC1	> 100 µM (inactive)
O=C1CSc2ccc(C(=O)Nc3ccc(-c4nnc5n4CCCCC5)cc3)cc2N1	> 100 µM (inactive)
O=C(/C=C/c1n[nH]c2ccccc12)Nc1ccc(C(=O)NCCN2CCOCC2)cc1	> 100 µM (inactive)
COc1ccc(N2CCN(C(=O)c3csc(Nc4ccccc4S(C)(=O)=O)n3)CC2)nc1	> 100 µM (inactive)
CC(C)Oc1ccc(-c2nnc(Oc3cccc4c3CCN(CCC(N)=O)CC4)s2)cc1C#N	20 µM
Cc1ccc2nc(CCNC(=O)CCS(=O)(=O)c3ccc4c(c3)CC(=O)N4C)[nH]c2c1	> 100 µM (inactive)
COc1ccc(-c2ccc(CNC(=O)c3cc(C(=O)NC(C)C)ccc3Cl)cc2)cn1	> 100 µM (inactive)
